Results on four compounds are retold here after US20240327418A1, “MULTI-TARGET INHIBITOR TARGETING HDAC AND NAD SYNTHESIS AND USE OF MULTI-TARGET INHIBITOR” (OCEAN UNIVERSITY OF CHINA, priority 2021, published 2024).

Where two headings read alike, the source gives them in different places.

Usually GI50 stands for the concentration at which growth is held to half of that of the control. The term AUC(0-t) denotes exposure summed from dosing to a finite time, without extrapolation to infinity. The term Tmax denotes the time at which the peak concentration occurs. One may read the Cmax as the maximum level reached in the sampled fluid or tissue. As usually defined, the IC50 is the midpoint of a concentration-inhibition curve. What is called CC50 is the concentration giving 50% cytotoxicity. In general, LC50 refers to the concentration lethal to half of the exposed cells or organisms. A word on the t½: it is the time needed for the level to fall by half in the phase considered.

One series concerns leukemia cell line PL21. The series can be described thus: GI50 and LC50 by NCI method, PL21. As to conditions: PL-21; 48 hours, Cell Titer-Blue. It is filed as cell-based. As to the method: (§1) The median growth inhibitory concentration (GI50) and median lethal concentration (LC50) were determined by NCI method. Leukemia cell strains MV4-11, HL60, PL21, KASUMI-1, MONO-MAC-1 and NB-4 were cultured in an Iscove's Modified Dulbecco Medium (IMDM) containing 10% fetal bovine serum, were inoculated into a 96-well cell culture plate at a density of 10,000 cells/100 μL and cultured overnight. 6 wells were selected as Tz wells, 0.125 mg/mL Cell Titer-Blue dye was added, and the cells were cultured for 4 hours and then the fluorescence intensity at […] (excitation wavelength/emission wavelength) was read. Compounds of different concentrations were added to the remaining wells, and a 100% control group was set. After 48 hours of cultivation, 0.125 mg/mL Cell Titer-Blue dye was added and the fluorescence intensity at […] was read after 4 hours. The fluorescence intensity of the dosing group was represented by Ti, the fluorescence intensity of the 100% control group was represented by C, and the fluorescence intensity before dosing was represented by Tz.
(§2) If Ti≥Tz, the formula [(Ti−Tz)/(C−Tz)]×100 was used.
(§3) If Ti<Tz, the formula [(Ti−Tz)/Tz]×100 was used.
(§4) The GI50 and LC50 values of some compounds on leukemia cell strains MV4-11, HL60, PL21, KASUMI-1, MONO-MAC-1 and NB-4 are shown in FIG. 1, Table 3, FIG. 2, and Table 4.
On the technique in general: The colour change of resazurin is a common sign of viable cells or microbes.

A short description of series [1]: Pharmacokinetic properties in mice. The series is classed as in vivo.
In another series the target is HDAC3 (Homo sapiens (Human), UniProt O15379). In words: Inhibitory activity on HDAC3 (fluorescence enzyme assay). Particulars: read-out: IC50 HDAC3; mean of three independent experiments.
Chain of HDAC3 (O15379 whole entry, species assumed): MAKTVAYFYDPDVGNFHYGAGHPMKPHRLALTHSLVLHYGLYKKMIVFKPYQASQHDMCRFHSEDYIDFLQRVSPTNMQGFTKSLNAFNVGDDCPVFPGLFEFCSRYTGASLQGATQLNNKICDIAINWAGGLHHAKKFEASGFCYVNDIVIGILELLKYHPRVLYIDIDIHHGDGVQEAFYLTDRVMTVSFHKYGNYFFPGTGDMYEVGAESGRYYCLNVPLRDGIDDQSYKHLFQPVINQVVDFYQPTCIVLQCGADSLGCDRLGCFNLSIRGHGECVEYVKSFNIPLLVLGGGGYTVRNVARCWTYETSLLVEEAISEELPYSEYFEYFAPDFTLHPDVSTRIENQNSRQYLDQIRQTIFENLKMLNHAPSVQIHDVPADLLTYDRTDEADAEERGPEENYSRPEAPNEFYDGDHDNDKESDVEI
Chain of HDAC3 (Q9Y618 395-489 partner, species assumed): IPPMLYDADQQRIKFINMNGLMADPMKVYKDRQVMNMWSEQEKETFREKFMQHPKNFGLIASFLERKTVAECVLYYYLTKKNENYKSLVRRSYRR
For series [2], the system named is acute myelogenous leukemia cells MV4-11. The series can be described thus: GI50 and LC50 by NCI method, MV4-11. The series is classed as cell-based. Particulars: Homo sapiens, 48 hours, Cell Titer-Blue. As for the experimental part:
as §1, §2, §3, §4

The next series has as its target HDAC1 (Homo sapiens (Human), UniProt Q13547). In words: Inhibitory activity on HDAC1 (fluorescence enzyme assay). Particulars: read-out: IC50 HDAC1; mean of three independent experiments.
For another series, the target named is HDAC2 (Homo sapiens (Human), UniProt Q92769). The series can be described thus: Inhibitory activity on HDAC2 (fluorescence enzyme assay). As to conditions: read-out: IC50 HDAC2; mean of three independent experiments.
Chain of HDAC2 (Q92769 whole entry, species assumed): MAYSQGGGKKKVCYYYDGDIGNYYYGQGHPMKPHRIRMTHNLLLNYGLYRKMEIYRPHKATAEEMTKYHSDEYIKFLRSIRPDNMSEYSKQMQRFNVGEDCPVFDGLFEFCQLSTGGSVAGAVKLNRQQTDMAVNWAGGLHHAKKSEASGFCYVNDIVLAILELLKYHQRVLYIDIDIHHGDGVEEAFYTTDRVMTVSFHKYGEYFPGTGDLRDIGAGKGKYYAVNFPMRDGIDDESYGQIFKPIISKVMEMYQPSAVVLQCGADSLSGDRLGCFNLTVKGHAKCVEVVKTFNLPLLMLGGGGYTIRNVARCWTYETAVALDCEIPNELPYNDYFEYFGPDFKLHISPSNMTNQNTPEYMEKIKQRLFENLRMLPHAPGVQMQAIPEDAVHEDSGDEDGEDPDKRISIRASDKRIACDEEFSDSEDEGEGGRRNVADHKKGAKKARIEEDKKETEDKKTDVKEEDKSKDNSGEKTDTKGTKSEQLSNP
In series [3] the test system is acute myelogenous leukemia cells HL60. The series can be described thus: GI50 and LC50 by NCI method, HL60. As to conditions: for CC50 / GI50: Homo sapiens, HL-60, 48 hours, Cell Titer-Blue. The series is classed as cell-based. As for the experimental part: as §1, §2, §3, §4
The subject of series [4] is leukemia cell line MONO-MAC-1. The series can be described thus: GI50 and LC50 by NCI method, MONO-MAC-1. The series is classed as cell-based. As to conditions: 48 hours, Cell Titer-Blue. As to the method:
as §1, §2, §3, §4

A further series relates to leukemia cell line NB-4. The series can be described thus: GI50 and LC50 by NCI method, NB-4. It is filed as cell-based. Particulars: 48 hours, Cell Titer-Blue; for GI50: read-out: NB4 GI50; for LC50 (median lethal concentration): read-out: NB4 LC50. As for the experimental part:
as §1, §2, §3, §4

Series [5] has as its system leukemia cell line KASUMI-1. In words: GI50 and LC50 by NCI method, KASUMI-1. As to conditions: Homo sapiens, 48 hours, Cell Titer-Blue. It is filed as cell-based. As to the method: as §1, §2, §3, §4
Another series has as its system HCT116 tumor. The series can be described thus: In vivo anti-colon cancer activity, HCT116 tumor bearing model. More on the design: species or system nude mice.
For the next series, the system named is cell death. In words: NMN reversal of cell death caused by compounds (FIG. 4). It is filed as cell-based. Particulars: NMN is nicotinamide mononucleotide.
Another series concerns the target NAMPT (Homo sapiens (Human), UniProt P43490). In words: Inhibitory activity on NAMPT. The series is classed as biochemical.
The conditions of series [6]: po 50 mg/kg, literature (BMC 2007, 21, 184-189); cited from earlier work.
For a further series, the system named is MV4-11 tumor. In words: In vivo anti-leukemia activity, MV4-11 tumor bearing model. Particulars: MV4-11 tumor bearing nude mice; 4 mg/kg/d, day 23; panobinostat intraperitoneal.
Setting [7] is: mouse, plasma, po 20 mg/kg single dose.
The mark [8] stands for this setting: HCT116 tumor bearing nude mice, LEE17 orally 8 mg/kg/d.

Chain of HDAC1 (Q13547 whole entry, species assumed): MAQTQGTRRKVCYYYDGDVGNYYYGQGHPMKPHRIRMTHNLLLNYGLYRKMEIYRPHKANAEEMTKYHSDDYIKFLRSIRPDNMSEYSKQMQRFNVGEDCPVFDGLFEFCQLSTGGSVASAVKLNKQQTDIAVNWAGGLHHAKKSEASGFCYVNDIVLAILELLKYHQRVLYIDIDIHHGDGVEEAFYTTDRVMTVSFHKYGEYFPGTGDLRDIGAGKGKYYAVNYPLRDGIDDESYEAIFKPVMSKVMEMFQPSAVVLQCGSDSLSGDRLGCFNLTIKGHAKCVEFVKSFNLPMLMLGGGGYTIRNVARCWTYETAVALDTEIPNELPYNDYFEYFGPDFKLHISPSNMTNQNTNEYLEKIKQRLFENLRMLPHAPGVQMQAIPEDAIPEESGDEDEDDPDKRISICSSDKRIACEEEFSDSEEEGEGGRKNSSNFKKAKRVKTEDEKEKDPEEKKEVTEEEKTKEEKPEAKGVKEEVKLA
Chain of NAMPT (P43490 whole entry, species assumed): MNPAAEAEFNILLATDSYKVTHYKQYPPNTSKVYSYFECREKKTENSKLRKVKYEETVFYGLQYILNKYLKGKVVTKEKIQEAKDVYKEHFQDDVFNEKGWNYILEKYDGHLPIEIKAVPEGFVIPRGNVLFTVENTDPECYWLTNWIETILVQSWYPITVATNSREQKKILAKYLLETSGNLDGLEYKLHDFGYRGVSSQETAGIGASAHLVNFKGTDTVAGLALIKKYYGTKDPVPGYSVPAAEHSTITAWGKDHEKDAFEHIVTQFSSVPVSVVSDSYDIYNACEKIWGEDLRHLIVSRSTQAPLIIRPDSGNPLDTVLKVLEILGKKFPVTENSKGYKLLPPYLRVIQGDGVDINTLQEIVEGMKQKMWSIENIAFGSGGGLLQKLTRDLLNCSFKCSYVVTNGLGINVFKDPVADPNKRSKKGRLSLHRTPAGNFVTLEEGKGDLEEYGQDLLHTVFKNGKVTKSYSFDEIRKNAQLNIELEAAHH

For `CCCNNC(=O)c1ccc(CNC(=O)c2cc3ccccc3s2)cc1` [LEE17, N-(4-(2-propylhydrazino-1-carbonyl)benzyl)benzo[b]thiophene-2-carboxyamide], the GI50 with leukemia cell line PL21 was determined as 74.3 nM; in series [2], 20.3 nM; in series [3], 58.7 nM; in series [4] it was 33.2 nM; in the series on leukemia cell line NB-4 it was 51.2 nM; in series [5], 25.3 nM. Also, the LC50 (median lethal concentration) is greater than 10000 nM in the series on leukemia cell line PL21, 57.1 nM in [2] and greater than 10000 nM in the series on leukemia cell line NB-4. For the same compound, in series [1] (setting [7]), the AUC(0-t) was found to be 27600 ng·h/mL. Besides, the time to peak (Tmax) in series [1] (setting [7]) came out at 0.25 h. The maximum concentration (Cmax) in series [1] (mouse, plasma, po 20 mg/kg single dose, read-out: Cmax) is 9460 ng/mL. Besides, in series [1] (mouse, plasma, po 20 mg/kg single dose, read-out: t½ (converted)), the half-life is 4.46 h. The F in series [1] (po 20 mg/kg vs iv 5 mg/kg) is given as 64.6%. Besides, the IC50 on HDAC3 was found to be 0.551 nM; on HDAC1, 3.79 nM; on HDAC2 it was 16.9 nM. In addition, the 50% cytotoxic concentration (CC50) in series [3] and in [4] was greater than 10000 nM in each case. The same compound registered an LC50 in series [5] of 7320 nM. The “change in the weight of the nude mice at the end of the experiment (in words)” value in the series with HCT116 tumor (8 mg/kg/d) is “no significant change”. Moreover, in the series on HCT116 tumor (setting [8]), the “Relative tumor proliferation rate (T/C %)” value stood at 14.8%. In addition, the “Tumor inhibitory rate (TGI %)” value in the series with HCT116 tumor (setting [8]) was 85.5%. For the same compound, the “Weight of nude mice at the end of the experiment” value in the series on HCT116 tumor (setting [8]) is reported as 19.04 ± 1.31 g.

As to `CCCNNC(=O)c1ccc(CNC(=O)/C=C/c2cccnc2)cc1` [LEE12, (E)-N-(4-(2-propylhydrazino-1-carbonyl)benzyl)-3-(pyridin-3-yl) acrylamide], the GI50 in the series on leukemia cell line PL21 is 259 nM; in [2] it was 38.3 nM; in [3], 42.1 nM; in series [4], 73.7 nM; in the series on leukemia cell line NB-4 it was 22.8 nM; in [5], 13.5 nM. Also, the LC50 (median lethal concentration) is 3820 nM with leukemia cell line PL21, 218 nM in series [2] and 2300 nM in the series with leukemia cell line NB-4. Moreover, the IC50 stood at 3.12 nM on HDAC3, 25.1 nM at HDAC1, 141 nM on HDAC2 and 6570 nM on NAMPT (mean of three independent experiments). Further, the “effect of NMN on cell death caused by the compound” value with cell death is listed as “reversal effect”. In addition, the “LC50 values in p53-null cell strain HL60 (in words)” value in series [3] is given as “nanomolar level”. In addition, the half-maximal cytotoxic concentration (CC50) in series [3] was found to be 591 nM; in [4] it was 9030 nM. The “inhibitory activity against NAMPT (in words)” value against NAMPT is listed as “micromolar level”. For the same compound, the LC50 in [5] was determined as 285 nM.

Regarding `CCCNNC(=O)c1ccc(CNC(=O)c2cc3cnccc3[nH]2)cc1` [LEE18, N-(4-(2-propylhydrazin-1-carbonyl)benzyl)-1H-pyrrolo[3,2-c]pyridin-2-carboxamide], the GI50 was determined as 110 nM in the series with leukemia cell line PL21; 23.6 nM in [2]; 51.2 nM in [3]; 65.7 nM in [4]; 16.5 nM in the series on leukemia cell line NB-4; 21.4 nM in series [5]. Moreover, the results for the LC50 (median lethal concentration) (in the series on leukemia cell line PL21; in series [2]; in the series with leukemia cell line NB-4) were 2720 nM, 58.1 nM and 1560 nM, respectively. For the same compound, the IC50 was determined as 0.71 nM at HDAC3 and 37.8 nM at HDAC2. The “effect of NMN on cell death caused by the compound” value with cell death is on record as “reversal effect”. The “LC50 values in p53-null cell strain HL60 (in words)” value in series [3] is listed as “nanomolar level”. The CC50 in [3] is 649 nM; in [4] it was 8680 nM. In series [5], this compound gave a 50% lethal concentration (LC50) of 503 nM.

Turning to `Cc1[nH]c2ccccc2c1CCNCc1ccc(/C=C/C(=O)NO)cc1` [Panobinostat], in [6], the AUClast is 126 ng·h/mL, the highest concentration (Cmax) is 116 ng/mL, the F is reported as 4.62% and the t½ is 2.9 h. Further, in the series on MV4-11 tumor, the “Relative tumor proliferation rate (T/C %)” value is on record as 72.9% and the “Tumor inhibitory rate (TGI %)” value came to 18.3%.
